Results taken from patent publication US11807625B2, “Capsid inhibitors for the prevention of HIV” (Gilead Sciences, Inc., priority 2019, dated 2023).

Test system: rhesus plasma protein
Test: Competitive equilibrium dialysis (EQDS) assay, rhesus plasma protein binding
Type: in vitro ADME
Conditions: EC95 adjusted for rhesus plasma protein binding (competitive equilibrium dialysis)
Procedure: The mean 95% effective concentration (EC95) of 1.91±0.16 nM for a compound of Formula (Ib) (“Compound Ib”) was determined using a 7-day antiviral assay (p24 ELISA endpoint) in rhesus peripheral blood mononuclear cells (PBMCs) infected with SHIV-162P3. A competitive equilibrium dialysis assay was used to quantify rhesus plasma protein binding to Compound Ib, resulting in an inhibitory quotient (IQ) equal to Compound Ib plasma concentrations divided by a mean rhesus plasma protein-binding-adjusted EC95 (paEC95) value of 30.2±2.5 nM.
Equilibrium dialysis shift (EQDS) assay details: Rhesus plasma protein binding to a compound of Formula (Ib) (“Compound Ib”) was determined by competitive equilibrium dialysis. Rhesus plasma (10%) was spiked with Compound Ib (2 μM) and blank RPMI cell culture medium containing 2% fetal bovine serum (CCM) were placed into opposite sides of assembled dialysis cells, and incubations were performed in triplicate. After a 24-h equilibration period at 37° C., samples were corrected for the matrix effect, quenched, and quantified by liquid chromatography tandem mass spectrometry (LC-MS/MS) with electrospray ionization in positive mode and multiple-reaction monitoring (MRM). The fold change value in 100% rhesus plasma was then calculated using the plasma/CCM ratio after correcting for the sample dilution factor and the percent free fraction in the matrix.

CC(C)(C#Cc1ccc(-c2ccc(Cl)c3c(NS(=O)(=O)C4CC4)nn(CC(F)F)c23)c([C@H](Cc2cc(F)cc(F)c2)NC(=O)Cn2nc(C(F)F)c3c2C(F)(F)[C@@H]2C[C@H]32)n1)S(C)(=O)=O [Compound Ib, N—((S)-1-(3-(4-chloro-3-(cyclopropanesulfonamido)-1-(2,2-difluoroethyl)-1H-indazol-7-yl)-6-(3-methyl-3-(methylsulfonyl)but-1-yn-1-yl)pyridin-2-yl)-2-(3,5-difluorophenyl)ethyl)-2-((3b S,4aR)-3-(difluoromethyl)-5,5-difluoro-3b,4,4a,5-tetrahydro-1H-cyclopropa[3,4]cyclopenta[1,2-c]pyrazol-1-yl)acetamide]
mean rhesus plasma protein-binding-adjusted EC95 (paEC95): 0.0302 ± 0.0025 µM
